Measurements published in PubChem BioAssay AID256 (DTP/NCI, 2004).
Several values for one entry are separate records, joined by “and”; a condition that tells them apart may be missing. Equal values may be shown once. Inconclusive results and toxic doses are left out. The calls were made as follows: active = survival T/C of 150% or more; inactive = T/C below 125% in these data.

System: CD2F1 mice, L1210 leukemia ip, survival T/C
Assay: NCI In Vivo Anticancer Drug Screen. Data for tumor model L1210 Leukemia (intraperitoneal) in CD2F1 (CDF1) mice
Conditions: higher = longer survival
Outline: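 Ratio T/C, where T is the treated-group value and C the vehicle-dosed control value, from mice implanted with a transplantable tumor.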

[1] = endpoint: mean survival time, dose: 25.0 mg/kg/injection, schedule: Q04DX003 (ip), vehicle: saline
[2] = endpoint: mean survival time, dose: 50.0 mg/kg/injection, schedule: Q04DX003 (ip), vehicle: saline
[3] = endpoint: mean survival time, dose: 100.0 mg/kg/injection, schedule: Q04DX003 (ip), vehicle: saline
[4] = endpoint: mean survival time, dose: 100.0 mg/kg/injection, schedule: Q01DX009 (ip), vehicle: saline with Tween-80
[5] = endpoint: mean survival time, dose: 100.0 mg/kg/injection, schedule: Q04DX003 (ip), vehicle: saline with Tween-80
[6] = endpoint: mean survival time, dose: 200.0 mg/kg/injection, schedule: Q01DX009 (ip), vehicle: saline with Tween-80
[7] = endpoint: mean survival time, dose: 200.0 mg/kg/injection, schedule: Q04DX003 (ip), vehicle: saline with Tween-80
[8] = endpoint: mean survival time, dose: 400.0 mg/kg/injection, schedule: Q01DX009 (ip), vehicle: saline with Tween-80
[9] = endpoint: mean survival time, dose: 400.0 mg/kg/injection, schedule: Q04DX003 (ip), vehicle: saline with Tween-80
[10] = endpoint: mean survival time, dose: 100.0 mg/kg/injection, schedule: Q01DX001 (ip), vehicle: saline
[11] = endpoint: mean survival time, dose: 200.0 mg/kg/injection, schedule: Q01DX001 (ip), vehicle: saline

Measured: T/C

OCCOCCN1CCN(CC/C=C2\c3ccccc3Sc3ccc(C(F)(F)F)cc32)CC1
inactive: endpoint: mean survival time, dose: 0.75 mg/kg/injection, schedule: Q01DX009 (ip), vehicle: saline 87 % of control | endpoint: mean survival time, dose: 1.5 mg/kg/injection, schedule: Q01DX009 (ip), vehicle: saline 94 % of control | endpoint: mean survival time, dose: 3.0 mg/kg/injection, schedule: Q01DX009 (ip), vehicle: saline 100 % of control | endpoint: mean survival time, dose: 6.25 mg/kg/injection, schedule: Q04DX003 (ip), vehicle: saline 103 % of control | endpoint: mean survival time, dose: 8.0 mg/kg/injection, schedule: Q04DX003 (ip), vehicle: saline with Tween-80 115 % of control | endpoint: mean survival time, dose: 12.0 mg/kg/injection, schedule: Q04DX003 (ip), vehicle: saline with Tween-80 116 % of control | [1] 97 % of control | [2] 111 % of control | [3] 93 % of control

CC(C)C[P+](c1ccccc1)(c1ccccc1)c1ccccc1
inactive: endpoint: mean survival time, dose: 75.0 mg/kg/injection, schedule: Q01DX001 (ip), vehicle: other 96 % of control

O=C(O)/C=C/c1ccccc1C(=O)O
inactive: endpoint: mean survival time, dose: 100.0 mg/kg/injection, schedule: Q01DX009 (ip), vehicle: saline 103 % of control | endpoint: mean survival time, dose: 200.0 mg/kg/injection, schedule: Q01DX009 (ip), vehicle: saline 101 % of control | endpoint: mean survival time, dose: 400.0 mg/kg/injection, schedule: Q01DX009 (ip), vehicle: saline 101 % of control

CN(C)C
inactive: [4] 103 % of control | [5] 102 % of control | [6] 101 % of control | [7] 105 % of control | [8] 105 % of control | [9] 104 % of control

c1ccc([Si]c2ccccc2)cc1
inactive: [5] 104 % of control | [7] 102 % of control | [9] 102 % of control

CSc1nc(=O)n(C2OC(CO)C(O)C2O)nc1SCc1ccccc1 (centres undefined)
inactive: endpoint: mean survival time, dose: 12.5 mg/kg/injection, schedule: Q01DX005 (ip), vehicle: distilled water + Tween-80 94 % of control | endpoint: mean survival time, dose: 25.0 mg/kg/injection, schedule: Q01DX005 (ip), vehicle: distilled water + Tween-80 94 % of control | endpoint: mean survival time, dose: 50.0 mg/kg/injection, schedule: Q01DX005 (ip), vehicle: distilled water + Tween-80 92 % of control

Nc1ccccc1C1=Nc2cncnc2NC1
inactive: endpoint: mean survival time, dose: 75.0 mg/kg/injection, schedule: Q01DX001 (ip), vehicle: saline 104 % of control | endpoint: mean survival time, dose: 150.0 mg/kg/injection, schedule: Q01DX001 (ip), vehicle: saline 102 % of control | endpoint: mean survival time, dose: 300.0 mg/kg/injection, schedule: Q01DX001 (ip), vehicle: saline 93 % of control

CN(C)C(=O)c1cccc(COc2ccc(N3C(N)=NC(N)=NC3(C)C)cc2Cl)c1
inactive: endpoint: mean survival time, dose: 0.2 mg/kg/injection, schedule: Q01DX009 (ip), vehicle: saline 100 % of control | endpoint: mean survival time, dose: 0.4 mg/kg/injection, schedule: Q01DX009 (ip), vehicle: saline 98 % of control | endpoint: mean survival time, dose: 1.56 mg/kg/injection, schedule: Q01DX009 (ip), vehicle: saline 98 % of control | endpoint: mean survival time, dose: 3.13 mg/kg/injection, schedule: Q01DX009 (ip), vehicle: saline 100 % of control | endpoint: mean survival time, dose: 6.25 mg/kg/injection, schedule: Q01DX009 (ip), vehicle: saline 98 % of control | endpoint: mean survival time, dose: 12.5 mg/kg/injection, schedule: Q01DX009 (ip), vehicle: saline 98 % of control | endpoint: mean survival time, dose: 65.0 mg/kg/injection, schedule: Q01DX009 (ip), vehicle: saline 97 % of control

C=CCOC(c1ccc2c(c1)OCO2)C(C)Br (centres undefined)
inactive: endpoint: mean survival time, dose: 100.0 mg/kg/injection, schedule: Q01DX001 (ip), vehicle: saline with Tween-80 94 % of control | endpoint: mean survival time, dose: 200.0 mg/kg/injection, schedule: Q01DX001 (ip), vehicle: saline with Tween-80 94 % of control | endpoint: mean survival time, dose: 400.0 mg/kg/injection, schedule: Q01DX001 (ip), vehicle: saline with Tween-80 94 % of control

O=C(N/N=C/c1ccc(Cl)cc1)C(O)(c1ccccc1)c1ccccc1
inactive: endpoint: mean survival time, dose: 25.0 mg/kg/injection, schedule: Q01DX009 (ip), vehicle: saline with Tween-80 102 % of control | endpoint: mean survival time, dose: 50.0 mg/kg/injection, schedule: Q01DX009 (ip), vehicle: saline with Tween-80 91 % of control | [4] 96 % of control

CCC(CC)n1c(C)cc(=O)n1C(CC)CC
inactive: endpoint: mean survival time, dose: 5.0 mg/kg/injection, schedule: Q01DX001 (ip), vehicle: saline 97 % of control | endpoint: mean survival time, dose: 10.0 mg/kg/injection, schedule: Q01DX001 (ip), vehicle: saline 97 % of control | endpoint: mean survival time, dose: 20.0 mg/kg/injection, schedule: Q01DX001 (ip), vehicle: saline 95 % of control

CC(=O)O.CC(=O)O.[Co].[NH2-].[NH2-].[NH2-].[NH2-]
inactive: endpoint: mean survival time, dose: 6.25 mg/kg/injection, schedule: Q04DX002 (ip), vehicle: saline with Tween-80 93 % of control | endpoint: mean survival time, dose: 12.5 mg/kg/injection, schedule: Q04DX002 (ip), vehicle: saline with Tween-80 87 % of control

CCS(=O)(=O)C(CCC#N)(CCC#N)S(=O)(=O)CC
inactive: [10] 95 % of control | [11] 103 % of control

CC(=O)Nc1ccc2c(c1)C(P(=O)(OC(C)C)OC(C)C)c1ccccc1-2 (centres undefined)
inactive: [5] 95 % of control | [7] 95 % of control | [9] 92 % of control

O=C(O)c1cc(C(=O)O)cc(S(=O)(=O)O)c1.[NH-]C1CCCCC1[NH-].[Pt+2]
inactive: endpoint: median survival time, dose: 3.12 mg/kg/injection, schedule: Q04DX003 (ip), vehicle: saline 121 % of control and 103 % of control
active: endpoint: median survival time, dose: 12.5 mg/kg/injection, schedule: Q04DX003 (ip), vehicle: saline 168 % of control | endpoint: median survival time, dose: 25.0 mg/kg/injection, schedule: Q04DX003 (ip), vehicle: saline 176 % of control | endpoint: median survival time, dose: 50.0 mg/kg/injection, schedule: Q04DX003 (ip), vehicle: saline 235 % of control and 350 % of control | endpoint: median survival time, dose: 100.0 mg/kg/injection, schedule: Q04DX003 (ip), vehicle: saline 188 % of control

O=C1CCc2cccc(O)c21
inactive: [4] 98 % of control | [5] 101 % of control | [6] 93 % of control | [7] 97 % of control | [8] 95 % of control | [9] 108 % of control

Cc1cccc([N+](=O)[O-])c1-c1ccccc1C(=O)O
inactive: endpoint: mean survival time, dose: 100.0 mg/kg/injection, schedule: Q01DX001 (ip), vehicle: Klucel (hydroxypropylcellulose) (HPC) 101 % of control | endpoint: mean survival time, dose: 200.0 mg/kg/injection, schedule: Q01DX001 (ip), vehicle: Klucel (hydroxypropylcellulose) (HPC) 101 % of control | endpoint: mean survival time, dose: 400.0 mg/kg/injection, schedule: Q01DX001 (ip), vehicle: Klucel (hydroxypropylcellulose) (HPC) 101 % of control

CCCCCCCCCCP(=O)(OCCCC)OCCCC
inactive: [1] 102 % of control | [2] 102 % of control | [3] 100 % of control

OCc1ccn2c1CCC2
inactive: endpoint: mean survival time, dose: 12.5 mg/kg/injection, schedule: Q01DX009 (ip), vehicle: Klucel (hydroxypropylcellulose) (HPC) 101 % of control | endpoint: mean survival time, dose: 50.0 mg/kg/injection, schedule: Q01DX009 (ip), vehicle: Klucel (hydroxypropylcellulose) (HPC) 100 % of control | endpoint: mean survival time, dose: 100.0 mg/kg/injection, schedule: Q01DX009 (ip), vehicle: Klucel (hydroxypropylcellulose) (HPC) 101 % of control

CCOCCN1CCN(CCCN2c3ccccc3Sc3ccc(C(F)(F)F)cc32)CC1
inactive: endpoint: mean survival time, dose: 1.75 mg/kg/injection, schedule: Q01DX001 (ip), vehicle: water 103 % of control | endpoint: mean survival time, dose: 3.5 mg/kg/injection, schedule: Q01DX001 (ip), vehicle: water 106 % of control | endpoint: mean survival time, dose: 7.0 mg/kg/injection, schedule: Q01DX001 (ip), vehicle: water 105 % of control | endpoint: mean survival time, dose: 9.9 mg/kg/injection, schedule: Q01DX001 (ip), vehicle: water 102 % of control | endpoint: mean survival time, dose: 15.0 mg/kg/injection, schedule: Q01DX001 (ip), vehicle: water 98 % of control | endpoint: mean survival time, dose: 22.0 mg/kg/injection, schedule: Q01DX001 (ip), vehicle: water 106 % of control | endpoint: mean survival time, dose: 37.5 mg/kg/injection, schedule: Q04DX003 (ip), vehicle: saline 122 % of control

Nc1nc2c(c(=O)[nH]1)N(C(=S)Nc1ccccc1)C(CNc1ccc(C(=O)NC(CCC(=O)O)C(=O)O)cc1)CN2 (centres undefined)
inactive: [10] 101 % of control | [11] 101 % of control | endpoint: mean survival time, dose: 400.0 mg/kg/injection, schedule: Q01DX001 (ip), vehicle: saline 104 % of control

NC(=S)c1cn(C2OC(CO)C(O)C2O)c2ncnc(N)c12 (centres undefined)
active: endpoint: median survival time, dose: 2.5 mg/kg/injection, schedule: Q01DX009 (ip), vehicle: suspension in saline 158 % of control | endpoint: median survival time, dose: 5.0 mg/kg/injection, schedule: Q01DX009 (ip), vehicle: suspension in saline 175 % of control
inactive: endpoint: median survival time, dose: 10.0 mg/kg/injection, schedule: Q01DX009 (ip), vehicle: suspension in saline 91 % of control
